# In US20230085307A1, “PYRIDAZINONE COMPOUND AND HERBICIDE” (NISSAN CHEMICAL CORPORATION, priority 2019, published 2023):
# Tests used:
# [1] = test system: late watergrass; test: Test Example 1: herbicidal activity, application before weed generation under submerged conditions (Table 16, symbol A); format: in vivo, late watergrass (Echinochloa oryzicola)
# Outline: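 Submerged Wagner pots (alluvial soil, 4 cm water) sown with weed seeds and planted with 2.5-leaf rice seedlings; emulsifiable concentrate diluted in water applied to water surface on sowing day. Held in greenhouse at 25-30 °C; injury scored 0-5 by herbicidal rate after three weeks.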
# [2] = test system: false cleavers; test: Test Example 4: herbicidal effect by soil treatment (Table 19, symbol Q); format: in vivo, false cleavers (Galium spurium)
# Outline: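 Soil-surface application: an emulsion agent diluted with water to the predetermined dose is sprayed uniformly over seeds lying under roughly 1.5 cm of sterilized diluvial soil. Boxes stay in a greenhouse at 25° C. to 30° C. Three weeks later, each species is graded on previously defined criteria.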
# [3] = test system: false cleavers; test: Test Example 5: herbicidal effect by foliage application, plastic box (Table 20, symbol Q); format: in vivo, false cleavers (Galium spurium); conditions: foliage application; for herbicidal effect grade, Q: false cleavers / Q: false cleavers, herbicidal effect: three weeks after application; for effect on false cleavers (Q): 3 weeks after application
# Outline: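 Sow seeds spot-wise in sterilized diluvial soil; cover with ~1.5 cm soil. Grow 14 days in greenhouse, 25° C. to 30° C. Spray foliage with emulsion diluted to predetermined amount. Rate effect after 3 weeks.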
# [4] = amount of applied herbicide 320 g/ha
# [5] = 320 g/ha, evaluated three weeks after application
SMILES,Herbicidal effect on A: late watergrass (grade 0-5) ([1]; 320 g/ha applied herbicide),"herbicidal effect rating, Q: false cleavers [2, 4]",further results
C#CC(C)Oc1ccc(-c2sc3ccccc3c2-c2c(O)c(C)nn(C)c2=O)cc1 (racemic) [1-217],4 (Herbicidal rate of 70% or more and less than 90%),–,"Q: false cleavers, herbicidal effect rating ([2]; AAH 320 g/ha): 3 (Herbicidal rate of 40% or more and less than 70%)"
C#CC(C)Oc1ccc(-c2sc3ccccc3c2-c2c(OCOCCOC)c(C)nn(C)c2=O)cc1 (racemic) [1-218],–,–,"Herbicidal effect on A: late watergrass (grade 0-5) ([1]; 100 g/ha applied herbicide): 4 (Herbicidal rate of 70% or more and less than 90%); Q: false cleavers, herbicidal effect rating ([2]; AAH 187 g/ha): 0 (Herbicidal rate of 5% or less (almost no effect))"
CCCOc1ccccc1-c1sc2ccccc2c1-c1c(O)c(C)nn(C)c1=O [1-015],3 (Herbicidal rate of 40% or more and less than 70%),3 (Herbicidal rate of 40% or more and less than 70%),"herbicidal effect grade, Q: false cleavers ([3]; 320 g/ha): 5 (Herbicidal rate of 90% or more (almost completely withered))"
CCCCCOc1ccc(-c2sc3ccccc3c2-c2c(O)c(C)nn(C)c2=O)cc1 [1-026],1 (Herbicidal rate of 5% or more and less than 20%),0 (Herbicidal rate of 5% or less (almost no effect)),"herbicidal effect grade, Q: false cleavers ([3]; 320 g/ha): 4 (Herbicidal rate of 70% or more and less than 90%)"
Cc1nn(C)c(=O)c(-c2c(-c3ccccc3OC(F)(F)F)sc3ccccc23)c1O [1-030],2 (Herbicidal rate of 20% or more and less than 40%),5 (Herbicidal rate of 90% or more (almost completely withered)),"herbicidal effect grade, Q: false cleavers ([3]; 320 g/ha): 5 (Herbicidal rate of 90% or more (almost completely withered))"
CC(=O)c1ccc(-c2sc3ccccc3c2-c2c(O)c(C)nn(C)c2=O)cc1 [1-041],3 (Herbicidal rate of 40% or more and less than 70%),5 (Herbicidal rate of 90% or more (almost completely withered)),"herbicidal effect grade, Q: false cleavers ([3]; 320 g/ha): 4 (Herbicidal rate of 70% or more and less than 90%)"
CCCC(=O)Oc1c(C)nn(C)c(=O)c1-c1c(-c2ccc(C(C)=NOC)cc2)sc2ccccc12 [1-044],5 (Herbicidal rate of 90% or more (almost completely withered)),4 (Herbicidal rate of 70% or more and less than 90%),"herbicidal effect grade, Q: false cleavers ([3]; 320 g/ha): 3 (Herbicidal rate of 40% or more and less than 70%)"
Cc1cc(-c2sc3ccccc3c2-c2c(O)c(C)nn(C)c2=O)ccc1F [1-051],4 (Herbicidal rate of 70% or more and less than 90%),0 (Herbicidal rate of 5% or less (almost no effect)),"herbicidal effect grade, Q: false cleavers ([3]; 320 g/ha): 0 (Herbicidal rate of 5% or less (almost no effect))"
CCOc1cc(F)ccc1-c1sc2ccccc2c1-c1c(O)c(C)nn(C)c1=O [1-061],3 (Herbicidal rate of 40% or more and less than 70%),4 (Herbicidal rate of 70% or more and less than 90%),"herbicidal effect grade, Q: false cleavers ([3]; 320 g/ha): 5 (Herbicidal rate of 90% or more (almost completely withered))"
COC(=O)Oc1c(C)nn(C)c(=O)c1-c1c(-c2ccc3c(c2)OCCO3)sc2ccccc12 [1-091],5 (Herbicidal rate of 90% or more (almost completely withered)),3 (Herbicidal rate of 40% or more and less than 70%),"Q: false cleavers, herbicidal effect ([3]; AAH 320 g/ha): 4 (Herbicidal rate of 70% or more and less than 90%)"
Cc1nn(C)c(=O)c(-c2c(-c3ccc4c(c3)OCCO4)sc3ccccc23)c1OC(=O)SC(C)(C)C [1-092],5 (Herbicidal rate of 90% or more (almost completely withered)),0 (Herbicidal rate of 5% or less (almost no effect)),"Q: false cleavers, herbicidal effect ([3]; AAH 320 g/ha): 0 (Herbicidal rate of 5% or less (almost no effect))"
Cc1nn(C)c(=O)c(-c2c(-c3ccc4c(c3)CCO4)sc3ccccc23)c1O [1-101],4 (Herbicidal rate of 70% or more and less than 90%),3 (Herbicidal rate of 40% or more and less than 70%),"Q: false cleavers, herbicidal effect ([3]; AAH 320 g/ha): 3 (Herbicidal rate of 40% or more and less than 70%)"
CCCC(=O)Oc1c(C)nn(C)c(=O)c1-c1c(-c2ccc3c(c2)CCO3)sc2ccccc12 [1-102],4 (Herbicidal rate of 70% or more and less than 90%),0 (Herbicidal rate of 5% or less (almost no effect)),"Q: false cleavers, herbicidal effect ([3]; AAH 320 g/ha): 1 (Herbicidal rate of 5% or more and less than 20%)"
COCc1ccc(-c2sc3ccccc3c2-c2c(O)c(C)nn(C)c2=O)cc1 [1-131],2 (Herbicidal rate of 20% or more and less than 40%),–,"Q: false cleavers, herbicidal effect ([3]; AAH 320 g/ha): 4 (Herbicidal rate of 70% or more and less than 90%); Q: false cleavers, herbicidal effect rating ([2]; AAH 320 g/ha): 0 (Herbicidal rate of 5% or less (almost no effect))"
Cc1nn(C)c(=O)c(-c2c(-c3ccc(OCCBr)cc3)sc3ccccc23)c1O [1-204],3 (Herbicidal rate of 40% or more and less than 70%),–,"Q: false cleavers, herbicidal effect rating ([2]; AAH 320 g/ha): 0 (Herbicidal rate of 5% or less (almost no effect))"
C=C(C)COc1ccc(-c2sc3ccccc3c2-c2c(O)c(C)nn(C)c2=O)cc1 [1-208],5 (Herbicidal rate of 90% or more (almost completely withered)),–,"Q: false cleavers, herbicidal effect rating ([2]; AAH 320 g/ha): 0 (Herbicidal rate of 5% or less (almost no effect))"
Cc1nn(C)c(=O)c(-c2c(-c3ccc(OCCC4OCCO4)cc3)sc3ccccc23)c1O [1-223],–,–,"Herbicidal effect on A: late watergrass (grade 0-5) ([1]; 246 g/ha applied herbicide): 5 (Herbicidal rate of 90% or more (almost completely withered)); Q: false cleavers, herbicidal effect rating ([2]; AAH 246 g/ha): 0 (Herbicidal rate of 5% or less (almost no effect))"
CCCC(=O)Oc1c(C)nn(C)c(=O)c1-c1c(-c2ccccc2OCC)sc2ccc(F)cc12 [2-029],–,–,"Herbicidal effect on A: late watergrass (grade 0-5) ([1]; 266 g/ha applied herbicide): 2 (Herbicidal rate of 20% or more and less than 40%); effect on false cleavers (Q) ([3]; 266 g/ha): 4 (Herbicidal rate of 70% or more and less than 90%); herbicidal effect rating, Q: false cleavers ([2]; 266 g/ha): 3 (Herbicidal rate of 40% or more and less than 70%)"
CCCOc1ccc(-c2sc3ccc(F)cc3c2-c2c(O)c(C)nn(C)c2=O)cc1 [2-032],4 (Herbicidal rate of 70% or more and less than 90%),–,"herbicidal effect rating, Q: false cleavers ([2]; 320 g/ha): 0 (Herbicidal rate of 5% or less (almost no effect))"
Cc1nn(C)c(=O)c(-c2c(-c3ccc(OC(C)C)cc3)sc3ccc(F)cc23)c1O [2-034],3 (Herbicidal rate of 40% or more and less than 70%),–,"effect on false cleavers (Q) ([3]; 320 g/ha): 4 (Herbicidal rate of 70% or more and less than 90%); herbicidal effect rating, Q: false cleavers ([2]; 320 g/ha): 0 (Herbicidal rate of 5% or less (almost no effect))"
CON=C(C)c1ccc(-c2sc3ccc(F)cc3c2-c2c(O)c(C)nn(C)c2=O)cc1 [2-079],1 (Herbicidal rate of 5% or more and less than 20%),–,"herbicidal effect on Q: false cleavers [3, 5]: 5 (Herbicidal rate of 90% or more (almost completely withered))"
CCOc1cc(F)ccc1-c1sc2ccc(F)cc2c1-c1c(O)c(C)nn(C)c1=O [2-084],1 (Herbicidal rate of 5% or more and less than 20%),–,"herbicidal effect on Q: false cleavers [3, 5]: 5 (Herbicidal rate of 90% or more (almost completely withered))"
CCCC(=O)Oc1c(C)nn(C)c(=O)c1-c1c(-c2ccc(F)cc2OCC)sc2ccc(F)cc12 [2-085],4 (Herbicidal rate of 70% or more and less than 90%),–,"herbicidal effect on Q: false cleavers [3, 5]: 5 (Herbicidal rate of 90% or more (almost completely withered)); herbicidal effect rating, Q: false cleavers ([2]; 320 g/ha): 4 (Herbicidal rate of 70% or more and less than 90%)"
Cc1nn(C)c(=O)c(-c2c(-c3ccc4c(c3)OCCO4)sc3ccc(F)cc23)c1O [2-092],2 (Herbicidal rate of 20% or more and less than 40%),–,"herbicidal effect on Q: false cleavers [3, 5]: 4 (Herbicidal rate of 70% or more and less than 90%)"
Cc1nn(C)c(=O)c(-c2c(-c3ccc(Br)cc3)sc3ccc(F)cc23)c1O [2-205],4 (Herbicidal rate of 70% or more and less than 90%),–,"Q: false cleavers, herbicidal effect rating [2, 4]: 1 (Herbicidal rate of 5% or more and less than 20%)"
Cc1nn(C)c(=O)c(-c2c(-c3ccc(OC(F)F)cc3)sc3ccc(F)cc23)c1OC(=O)OCCCl [2-293],5 (Herbicidal rate of 90% or more (almost completely withered)),–,"Q: false cleavers, herbicidal effect (criteria 0-5) ([3]; AAH 320 g/ha, evaluated three weeks after application): 5 (Herbicidal rate of 90% or more (almost completely withered))"
Cc1nn(C)c(=O)c(-c2c(-c3ccc(OC(F)F)cc3)sc3ccc(F)cc23)c1OC(=S)Sc1ccccc1 [2-298],3 (Herbicidal rate of 40% or more and less than 70%),–,"herbicidal effect on Q: false cleavers [2, 4]: 0 (Herbicidal rate of 5% or less (almost no effect))"
Cc1nn(C)c(=O)c(-c2c(-c3ccc(O)cc3)sc3ccc(F)cc23)c1O [2-337],4 (Herbicidal rate of 70% or more and less than 90%),–,"herbicidal effect on Q: false cleavers [2, 4]: 0 (Herbicidal rate of 5% or less (almost no effect))"
Cc1nn(C)c(=O)c(-c2c(-c3ccc([N+](=O)[O-])cc3)sc3ccc(F)cc23)c1O [2-341],3 (Herbicidal rate of 40% or more and less than 70%),–,"herbicidal effect on Q: false cleavers [2, 4]: 0 (Herbicidal rate of 5% or less (almost no effect))"
